In ChEMBL document CHEMBL1201862, “PubChem BioAssay data set” (2004):
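Five compound concentrations were applied to cells in 96-well plates for 48 hours; endpoints were derived by simple linear interpolation of the resulting dose-response curve. GI50: concentration for 50% inhibition of growth.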 Calls of active or inactive are those of the source. No stated cut-off is given here; in the data, active = GI50 up to about 1.1 µM and inactive = higher.

What was measured:
Assay in all cases: NCI-60 cell line screen, 48 h
DLD-1 = system: DLD-1
SNB-78 = system: SNB-78
KM-20L2 = system: KM-20L2
XF498 = system: XF498
RXF 631 = system: RXF 631
LXFL 529 = system: LXFL 529
DMS-273 = system: DMS-273
HOP-18 = system: HOP-18
M19-MEL = system: M19-MEL

Structure (SMILES) | GI50 (DLD-1) | GI50 (SNB-78) | GI50 (KM-20L2) | GI50 (XF498) | GI50 (RXF 631) | GI50 (LXFL 529) | GI50 (DMS-273) | GI50 (HOP-18) | GI50 (M19-MEL)
Cn1c2c([N+](=O)[O-])[se]nc2c(=O)n1-c1ccc([N+](=O)[O-])cc1 | 0.746 µM (active) | 1.99 µM (inactive) | 6.9 µM (inactive) | 2.26 µM (inactive) | 1.5 µM (inactive) | 1.25 µM (inactive) | 2.5 µM (inactive) | 2.82 µM (inactive) | –
C=C1CCCC(C)(C)[C@@H]1CC/C(C)=C/Cn1c2cccc(=O)c-2nc2ccccc21 | 1.26 µM (inactive) | – | – | 2.29 µM (inactive) | – | – | 1.48 µM (inactive) | 7.1 µM (inactive) | 1.26 µM (inactive)
CC1=C(Oc2ccccc2)C(CCC(=O)O)c2c(O)cc(Cl)c(O)c21 (configuration not stated) | > 100 µM (inactive) | > 100 µM (inactive) | > 100 µM (inactive) | > 100 µM (inactive) | > 100 µM (inactive) | – | > 100 µM (inactive) | – | > 100 µM (inactive)
O=C(O)CCC(=O)N1c2ccccc2CC1c1c[nH]c2ccccc12 (configuration not stated) | – | > 100 µM (inactive) | > 100 µM (inactive) | > 100 µM (inactive) | – | > 100 µM (inactive) | > 100 µM (inactive) | > 100 µM (inactive) | > 100 µM (inactive)
COc1cc(CCc2ccc(OCCN(C)C)cc2)cc(OC)c1OC | > 100 µM (inactive) | > 100 µM (inactive) | 76.9 µM (inactive) | 38.5 µM (inactive) | 88.7 µM (inactive) | 77.6 µM (inactive) | > 100 µM (inactive) | > 100 µM (inactive) | > 100 µM (inactive)
CCCCCCCCCCCCCCCCNCCCN(C)CCCN | 16.8 µM (inactive) | 16.9 µM (inactive) | 18.2 µM (inactive) | – | – | 18.6 µM (inactive) | 17.8 µM (inactive) | – | 19.9 µM (inactive)
CCCc1onc(CCC(=O)N(Cc2ccccc2)Cc2ccccc2)c1CC | > 100 µM (inactive) | > 100 µM (inactive) | > 100 µM (inactive) | > 100 µM (inactive) | > 100 µM (inactive) | > 100 µM (inactive) | > 100 µM (inactive) | – | > 100 µM (inactive)
Cc1cc(C)nc(NS(=O)(=O)c2ccc(Nc3c4ccccc4nc4c(C(=O)N5CCN(CCOS(C)(=O)=O)CC5)ccc(Cl)c34)cc2)n1 | > 100 µM (inactive) | > 100 µM (inactive) | > 100 µM (inactive) | > 100 µM (inactive) | > 100 µM (inactive) | – | > 100 µM (inactive) | – | > 100 µM (inactive)
C[C@@]12CC[C@H]3[C@@H]4CCC(=O)N[C@@]4(C)CC[C@@H]3[C@@]1(C)CC[C@H](OC(=O)Cc1ccc(N(CCCl)CCCl)cc1)C2 | 19.7 µM (inactive) | 19.5 µM (inactive) | 18.2 µM (inactive) | – | – | – | 15.2 µM (inactive) | 18 µM (inactive) | 17.5 µM (inactive)
Cn1c(=O)nc2n(-c3ccc(F)cc3)c3ccccc3nc-2c1=O | 19.5 µM (inactive) | 20 µM (inactive) | 19.8 µM (inactive) | 19.3 µM (inactive) | – | 22.8 µM (inactive) | 17 µM (inactive) | 19.4 µM (inactive) | 2.89 µM (inactive)
CCN(CC)CCSc1nc2cccc([N+](=O)[O-])c2[nH]1 | – | > 100 µM (inactive) | – | > 100 µM (inactive) | > 100 µM (inactive) | > 100 µM (inactive) | > 100 µM (inactive) | – | > 100 µM (inactive)
